Experimental data taken from patent EP1604983A1, “RECEPTOR ANTAGONIST” (Takeda Pharmaceutical Company Limited, priority 2003, dated 2004).
pIC50: −log10 of the molar value. No end group written: not given here.

What was measured:
[1] = Blood glucose concentration after intravenous administration of RFRP-1 to rat under no anesthesia; assay type: in vivo, Wistar male rat; conditions: 10 nmol/kg, 5 minutes and 15 minutes after administration, compared with physiological saline group (Fig. 1)
Description: (§1) A value indicates mean ± […] (mean ± SE) (n = 4). • Fig. 4 indicates a ratio of freezing in cued fear conditioning when RFRP-1 (-◆-) and a physiological saline (-○-) are administered in a ventricle. An ordinate axis indicates freezing (%) of one day and two day after administration, respectively, expressed by mean ± standard error.
Blood glucose concentration increasing activity of RFRP
As RFRP, human RFRP-1 (37 amino acids) consisting of an amino acid sequence of 56th (Ser) to 92nd (Phe) of an amino acid sequence represented by SEQ ID No.: 3. Hereinafter, this peptide is abbreviated as RFRP-1.
In order to study influence of peripheral administration of RFRP-1 on a blood glucose concentration, operation for collecting blood under free moving was performed. A mature Wistar male rat (weight 310 to 350 g at operation) was anesthetized with 50 mg/kg of pentobarbital by intraperitoneal administration. The rat was fixed on an anatomic pad in a supine position, and a left jugular vein was exposed. […]
Overnight after operation, 300 µl of blood was collected using a tuberculin injection syringe having a dose of 1 ml and a 25 gauge injection needle (both Telmo) before administration of RFRP-1. […] A blood glucose concentration was measured using Fuji Drichem 3500 (FUJIFILM).

[2] = Cued fear conditioning (freezing) after ventricle administration of RFRP-1; assay type: in vivo, Wistar male rat; conditions: rat, 3 nmol into a ventricle, on 2 day (48 hours after training); saline group 46.5% (Fig. 4)
Description: as §1
Amnesia promoting activity of RFRP
Since an RFRP nerve is projected on amygdaloid complex, in order to study involvement of RFRP in amygdaloid complex-dependent memory•learning ability, influence under cued fear conditioning due to ventricle administration of RFRP-1 was studied. A mature Wistar male rat (weight 280 to 320 g at operation) was anesthetized with 50 mg/kg of pentobarbital by intraperitoneal administration, and a rat was fixed in a brain localization apparatus. A tooth cutting bar was set lower by 3.3 mm from an interoralline. A cranial bone was exposed, and a hole was opened in a bone using a dental drill in order to embed a guide cannulae AG-12 (internal diameter 0.4 mm, external diameter 0.5 mm, Eicom) in a ventricle. In addition, an anchor screw was embedded in four places at a periphery thereof. A stainless guide cannulae AG-12 was inserted so that its tip was positioned at an upper part of a side ventricle. […]

[3] = Blood glucagon and insulin concentration after intravenous administration of RFRP-1 to rat; assay type: in vivo, Wistar male rat; conditions: for blood glucagon concentration: intravenous, compared with physiological saline group (Fig. 2)
Description: as §1
Pancreatic glucagon secretion promoting activity of RFRP
In order to study mechanism of blood glucose concentration increasing activity of RFRP-1, influence of RFRP-1 on a blood concentration of glucagon and insulin which are known as a hormone imparting a variation to a blood glucose concentration was studied. A mature Wistar male rat (weight 310 to 350 g at operation) was operated for collecting blood under free moving. Overnight after operation, 300 µl of a blood was collected using a tuberculin injection syringe having a dose of 1 ml and a 25 gauge injection needle (both Telmo) before administration of RFRP-1. In order to prevent blood coagulation, 3 µl of a 300 KIU/ml aprotinin solution containing 3 mg/ml EDTA had been placed into an injection syringe in advance. An Otsuka physiological saline or RFRP-1 dissolved in a physiological saline (80 nmol/mL) was intravenously administered through a tube at 1 mL/Kg. After 1, 3, 5 and 15 minutes from initiation of intravenous administration, each 300 µL of blood was collected from a jugular vein. The collected blood was centrifuged (13,000 rpm, 5 minutes) using a minor amount high speed cooling centrifuge (MR-150, Tommy Seiko), and the supernatant (plasma) was recovered.

human-type OT7T022 = assay: Binding inhibiting activity using human-type OT7T022-expressing CHO cell membrane fraction and 125I-labeled Y-RFRP-3; conditions: human-type OT7T022-expressing CHO cell membrane fraction 1 µg; 125I-labeled Y-RFRP-3 100 pM; room temperature 1.5 hours; read-out: IC50 value (binding inhibiting rate)
Description: Assessment of binding inhibiting activity of test compound using human-type OT7T022-expressing CHO cell
(1) Preparation of iodine-labeled entity of human-type RFRP-3 (Y-RFRP-3)
A part thereof was 1/100 diluted, radioactivity was measured with a γ-counter, and the remaining authentic product was distributed, which was stored at -30°C.
(2) Assessment of binding inhibiting activity
To a 96-well microplate were added 1 µg of a membrane fraction, a compound and Y-RFRP-3 labeled with ^125I, which had been diluted with a reaction buffer (50 mM Tris-HCl, 5 mM EDTA, 0.1% BSA, 0.5 mM PMSF, 20 µg/ml leupeptin, 0.1 µg/ml pepstatin A, 4 µg/ml E-64, 10 mM MgCl2, pH 7.5), to 100pM to react them at room temperature for 1.5 hours. For measuring non-specific binding, non-labeled Y-RFRP-3 was further added to […]. Then, a membrane fraction was transferred to a unifilter GF/C (Perkin Elmer) by filtering the reaction solution using a cell harvester (Perkin Elmer), and this was washed with a cooled 50 mM Tris buffer (pH 7.5) five times. The filter was dried, Microsinti (Packard) was added to the filter, and radioactivity was measured with Topcount (Packard).
A binding inhibiting rate (IC50 value) of a test compound is shown in [Table 1].

Substance	blood glucose concentration [1]	rate of freezing [2] [%]	blood insulin concentration ([3]; intravenous (Fig. 3))	blood glucagon concentration ([3]; 5 minutes after administration)	blood glucagon concentration ([3]; two minutes after administration)	pIC50 (human-type OT7T022)
RFRP-1 (MPHSFANLPLRF; not fully specified; ends and bridges not checked; UniProt Q9HCQ7 81-92, looked up)	significant (p<0.05, n = 4) activity of increasing a blood glucose concentration	35.5	a variation due to administration of RFRP-1 was not recognized	significant (p<0.01) increase was continued	significant (p<0.01) increase in a blood glucagon concentration	
tert-Butyl 7-bromo-4-hydroxy-2-neopentyl-1-oxo-1,2-dihydroisoquinoline-3-carboxylate [Example 10]						> 6.00
